# Laboratory results as given in patent publication US7884262B2, “Modified DMO enzyme and methods of its use” (Monsanto Technology LLC, priority 2006, dated 2011).
# Several values for one entry are separate records, joined by “and”; a condition that tells them apart may be missing. Equal entries are not always repeated. Entries after “also recorded” stand apart in the source; their conditions may differ. Where two headings read alike, the source gives them in different places.
# B1: DMOc: dicamba monooxygenase (DMO) variant comprising a cysteine at position 112 of SEQ ID NO:1 (protein)
# chain: MATFVRNAWYVAALPEELSEKPLGRTILDTPLALYRQPDGVVAALLDICPHRFAPLSDGILVNGHLQCPYHGLEFDGGGQCVHNPHGNGARPASLNVRSFPVVERDALIWICPGDPALADPGAIPDFGCRVDPAYRTVGGYGHVDCNYKLLVDNLMDLGHAQYVHRANAQTDAFDRLEREVIVGDGEIQALMKIPGGTPSVLMAKFLRGANTPVDAWNDIRWNKVSAMLNFIAVAPEGTPKEQSIHSRGTHILTPETEASCHYFFGSSRNFGIDDPEMDGVLRSWQAQALVKEDKVVVEAIERRRAYVEANGIRPAMLSCDEAAVRVSREIEKLEQLEAA
# B2: DMOw: unaltered (wild type) dicamba monooxygenase sequence from Pseudomonas maltophilia, strain DI-6; U.S. Pat. No. 7,022,896 (protein, UniProt Q5S3I3 2-339, looked up)
# Dicamba O-demethylase, …: TFVRNAWYVAALPEELSEKPLGRTILDTPLALYRQPDGVVAALLDICPHRFAPLSDGILVNGHLQCPYHGLEFDGGGQCVHNPHGNGARPASLNVRSFPVVERDALIWIWPGDPALADPGAIPDFGCRVDPAYRTVGGYGHVDCNYKLLVDNLMDLGHAQYVHRANAQTDAFDRLEREVIVGDGEIQALMKIPGGTPSVLMAKFLRGANTPVDAWNDIRWNKVSAMLNFIAVAPEGTPKEQSIHSRGTHILTPETEASCHYFFGSSRNFGIDDPEMDGVLRSWQAQALVKEDKVVVEAIERRRAYVEANGIRPAMLSCDEAAVRVSREIEKLEQLEAA
# Legend:
# [1] = test system: nontransgenic tobacco plants; conditions: for Herbicide damage symptoms: spray
# Excerpt: (§1) Plants in the greenhouse were sprayed with solvent and commercial grade dicamba (Clarity; BASF) using a compressed air, motor-driven, track sprayer with a flat-fan 8002E nozzle traveling at 1.87 mph. Additives included; 28% urea ammonium nitrate at 1.25% v/v and nonionic surfactant at 1.0% v/v. The solution containing dicamba at various concentrations was applied at 182 L/ha ([…]). Soybean field plantings were sprayed with Clarity herbicide at 2.8 kg/ha (2.5 lb/ac).
# (§2) In this study, the concentration of dicamba employed provided a dose of 1.12 kg/ha. […] In this study, treatments were compared using 2.2 kg/ha dicamba on two T1 tobacco plants, one carrying DMOc lacking a chloroplast transit peptide and the other completely lacking the DMOc gene due to genetic segregation.
# [2] = test system: Arabidopsis thaliana expressing the DMOc gene; conditions: 1.12 kg/ha
# Excerpt: (§3) Tobacco, tomato, soybeans and Arabidopsis were used for transgenic expression of the genetically engineered DMOc gene and confirmation of dicamba tolerance in plants expressing the gene. The DMOc coding sequence in binary vector pKLP36 was introduced into A. tumefaciens strain C58C1 containing the disarmed Ti plasmid pMP90 (Koncz and Schell, 1986) by triparental mating (Ditta 1980). The resultant transconjugants were used for tobacco (cv Xanthi) and tomato (cv Rutgers) transformation using the leaf disc protocol described by Horsch et al. (Horsch 1985). Arabidopsis thaliana was transformed by the floral dip technique (Clough and Bent, 1998). Transformation of soybean varieties Thorne and NE-3001 was carried out by cotyledonary-node Agrobacterium-mediated transformation system (Zhang et al., 1999).
# as §1, §2
# [3] = test system: DMOc-containing transgenic tobacco plants
# Excerpt: as §3, §1, §2
# [4] = test system: Transgenic tomato plants carrying the genetically engineered DMOc gene; conditions: first 0.56 kg/ha and subsequently 5.6 kg/ha
# Excerpt: as §3, §1, §2
# transgenic soybean lines = test system: transgenic soybean lines
# Excerpt: as §3, §1
# [5] = test system: homoplastidic transgenic tobacco plants containing a chloroplast-encoded dicamba monooxygenase gene
# [6] = DMO activity assay (DCSA formation by HPLC), steady state kinetics, pH and temperature optimum; assay type: biochemical
# Protocol: Protein concentrations were determined by Bradford assay with rabbit IgG as standard. Proteins were separated by SDS-PAGE and stained with Coomassie Blue. DMO activity was measured by following the formation of DCSA which was separated by HPLC (Waters Corporation, Milford, Mass.) by using a Discovery C18 column (Supelco, Sigma-Aldrich, St. Louis, Mo.). The retention time for DCSA was 8 minutes and for dicamba was 9.5 minutes. For kinetic studies the DCSA was detected and quantified by fluorescence emission at 420 nm (excitation wavelength 310 nm) after separation on the HPLC column from reaction mixture. Set concentrations of DCSA (12 and 24 μM) were used as quantification standards.
# Stock solution of dicamba (100, 200, 400, 800, 1000, 2000, 5000, and 10000 μM), 0.1 M KPi pH 7.2, 0.1 M FeSO4, 0.1 M NADH, and 1 M MgCl2 were used. The assays were performed at 30° C. for 20 minutes and the reaction was quenched by addition of 40 μl of H2SO4. For activity measurements DMO was coupled with an excess of purified ferredoxin and reductase from P. maltophilia strain DI-6.
# Since the assay for DMO activity was a discontinuous assay, it was important to establish the time for which the assay has to be run in order to obtain meaningful kinetic parameters. The assay thus has to be run under initial condition as the amount of DCSA produced is linear for the time the assay is being run (FIG. 4). […] (FIG. 6).
# The Michaelis-Menten parameters were determined by fitting the data to a nonlinear steady-state equation (Equation 1). The data were analyzed using Sigma plot 8.0 (Jandel Scientific). Vo=Vmax*[S]/(Km+[S]) Equation 1
# The optimum pH and temperature were also determined for DMOw and DMOc. Optimum pH was measured at 30° C. for 20 minutes and optimum temperature determination was measured also for 20 minutes at pH 7.2 for both forms of the enzyme. The results are summarized in FIGS. 7-9 and are discussed below.
# [7] = steady state, substrate dicamba
# [8] = steady state, substrate dicamba, 30° C., 20 minutes
molecule,measurement,setting,value
"COc1c(Cl)ccc(Cl)c1C(=O)O [dicamba, 3,6-dichloro-o-anisic acid]",Herbicide damage symptoms,[1]; 0.017 kg/ha,easily detected
same,Herbicide damage symptoms,[1]; 0.28 kg/ha,quite severe
same,Herbicide damage symptoms,[1]; 0.56 kg/ha,quite severe
same,damage caused by dicamba treatment,"[1]; 2.2 kg/ha, T1 plant lacking the DMOc gene due to genetic segregation",fully susceptible
same,damage,"[1]; 5.6 kg/ha, post-emergence, nontransgenic plant",severe damage
same,tolerance,[2],strong tolerance
same,symptoms,"[3]; 5.6 kg/ha, post-emergence","few, if any symptoms"
same,dicamba treatment level tolerated,[3]; transgenic tobacco expressing DMOc,≥ 5.6 kg/ha
same,damage,[4],no damage
same,tolerance,"transgenic soybean lines; 2.8 kg/ha (highest level tested), two years of field trials",strong tolerance
same,tolerance,"transgenic soybean lines; 2.8 kg/ha, greenhouse, most lines",significant tolerance
same,tolerance,"transgenic soybean lines; 5.6 kg/ha, greenhouse, most lines",significant tolerance
same,dicamba treatment level tolerated,transgenic soybean lines; DMOc in nuclear genome of soybean plants,2.8 kg/ha
same,damage,"[5]; 28 kg/ha (25 lb/ac), T1-T3 progeny",no apparent damage
same,damage,[5]; 112 kg/ha,only transitory damage
same,damage,[5]; 224 kg/ha,only transitory damage
same,dicamba tolerance level,[5]; DMOc gene in chloroplast genome,at least 28 kg/ha
B1,catalytic efficiency relative to DMOw,[6]; DMOc vs DMOw,five times better enzyme than DMOw; also recorded: five times more efficient than DMOw
same,Km,"[6]; DMOc, Study no. 1-2",21 µM and 20 µM
same,Vmax,"[6]; DMOc, Study no. 1-2",713 ± 43 nmol/min/mg and 676 ± 37 nmol/min/mg
same,Km,[6]; Michaelis-Menten parameters,20.5 ± 5 µM
same,Vmax,[6]; Michaelis-Menten parameters,676 ± 37 nmol/min/mg
same,Vmax,[6]; [7],676 ± 37 × 10^−3 U/mg
same,kcat,[6]; [7],70.41 s⁻¹
same,Km,[6]; [8],20 µM
B2,optimum pH for the assay,"[6]; 0.1 M Kpi buffer, 30° C., 20 minutes",7.2
same,Km,"[6]; DMOw, Study no. 1-3",49 µM and 46 µM
same,Vmax,"[6]; DMOw, Study no. 1-3",633 ± 24 nmol/min/mg and 583 ± 18 nmol/min/mg and 590 ± 19 nmol/min/mg
same,Km,[6]; Michaelis-Menten parameters,49 ± 7 µM
same,Vmax,[6]; Michaelis-Menten parameters,633 ± 24 nmol/min/mg
same,optimum temperature,"[6]; pH 7.2, 20 minutes",approximately 37 °C
same,Vmax,[6]; [7],633 ± 24 × 10^−3 U/mg
same,kcat,[6]; [7],36.63 s⁻¹
same,Km,[6]; [8],49 µM
